Where two headings read alike, the source gives them in different places.
Key:
FLT3 = molecular target: T1, FLT3 (Homo sapiens, UniProt P36888); experiment: In vitro kinase activity experiment, FLT3; type: biochemical; details: inhibition rate of enzyme at 500 nM, measured by Eurofins; for inhibition at 0.5 µM: 40 min, read-out: Kinase activity @ 500 nM (%) FLT3
T1 construct: purchased Eurofins
T1 sequence (P36888 27-993): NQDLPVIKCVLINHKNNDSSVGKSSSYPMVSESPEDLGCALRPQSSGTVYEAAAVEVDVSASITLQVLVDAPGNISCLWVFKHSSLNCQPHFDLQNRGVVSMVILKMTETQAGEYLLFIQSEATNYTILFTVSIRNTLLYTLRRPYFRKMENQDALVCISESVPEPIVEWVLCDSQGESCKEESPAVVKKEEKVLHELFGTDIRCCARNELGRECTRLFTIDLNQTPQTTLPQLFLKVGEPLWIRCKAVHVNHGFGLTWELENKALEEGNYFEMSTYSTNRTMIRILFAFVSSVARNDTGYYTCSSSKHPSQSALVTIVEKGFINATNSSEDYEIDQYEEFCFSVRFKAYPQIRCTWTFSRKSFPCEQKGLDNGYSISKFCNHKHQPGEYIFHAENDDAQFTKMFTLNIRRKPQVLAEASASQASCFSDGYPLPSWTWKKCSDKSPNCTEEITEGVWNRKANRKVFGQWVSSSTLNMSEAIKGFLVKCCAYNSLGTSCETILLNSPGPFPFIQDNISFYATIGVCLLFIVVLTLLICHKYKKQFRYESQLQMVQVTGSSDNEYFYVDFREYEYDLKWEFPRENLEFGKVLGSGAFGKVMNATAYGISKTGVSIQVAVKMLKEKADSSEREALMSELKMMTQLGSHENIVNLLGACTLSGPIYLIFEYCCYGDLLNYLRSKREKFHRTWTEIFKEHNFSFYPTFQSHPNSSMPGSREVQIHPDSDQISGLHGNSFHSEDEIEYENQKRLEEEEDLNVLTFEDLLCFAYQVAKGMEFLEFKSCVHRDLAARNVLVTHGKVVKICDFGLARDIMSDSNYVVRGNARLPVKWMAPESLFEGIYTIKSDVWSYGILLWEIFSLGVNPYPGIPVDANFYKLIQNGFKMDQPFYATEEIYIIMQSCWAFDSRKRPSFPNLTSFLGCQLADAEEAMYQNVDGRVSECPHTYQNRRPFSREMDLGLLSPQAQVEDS
Procedure, shortened: (§1)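 Reactions began on MgATP addition after the kinase, substrate, γ33P-ATP, 10 mM magnesium acetate and compound series were mixed in MOPS buffer pH 7.0 with EDTA and MnCl2. After 40 min at room temperature, phosphate quench, filter-mat capture and washing, incorporated 33P was measured by scintillation counting.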

SET-2 cells (JAK2 V617F) = experiment: Inhibition of cell proliferation by MTT experiment, SET-2; type: cell-based; details: MTT, 72 h, read-out: IC50 value on cell proliferation inhibition, SET-2 (V617F)
Procedure, shortened: (§2)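 MTT assay in MV4-11, MOLM-13 (FLT3-ITD) and SET-2 (JAK2 V617F) cells at 10,000–15,000 cells/well in IMDM with 10% FBS. Cells are exposed to compound for 72 h at 37 °C, then to MTT for 1–3 h. IC50 is fitted from inhibition rates across concentrations.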

[1] = test system: MV4-11 cells (FLT3-ITD+/+); experiment: Inhibition of cell proliferation by MTT experiment, MV4-11; type: cell-based, human; details: MTT, 72 h, read-out: IC50 value on cell proliferation inhibition, MV4-11 FLT3-ITD+/+
Procedure, shortened: as §2

JAK2 = molecular target: T2, JAK2 (Homo sapiens, UniProt O60674); experiment: In vitro kinase activity experiment, JAK2; type: biochemical; details: inhibition rate of enzyme at 500 nM; measured by Eurofins
T2 construct: purchased Eurofins
T2 sequence (O60674 whole entry): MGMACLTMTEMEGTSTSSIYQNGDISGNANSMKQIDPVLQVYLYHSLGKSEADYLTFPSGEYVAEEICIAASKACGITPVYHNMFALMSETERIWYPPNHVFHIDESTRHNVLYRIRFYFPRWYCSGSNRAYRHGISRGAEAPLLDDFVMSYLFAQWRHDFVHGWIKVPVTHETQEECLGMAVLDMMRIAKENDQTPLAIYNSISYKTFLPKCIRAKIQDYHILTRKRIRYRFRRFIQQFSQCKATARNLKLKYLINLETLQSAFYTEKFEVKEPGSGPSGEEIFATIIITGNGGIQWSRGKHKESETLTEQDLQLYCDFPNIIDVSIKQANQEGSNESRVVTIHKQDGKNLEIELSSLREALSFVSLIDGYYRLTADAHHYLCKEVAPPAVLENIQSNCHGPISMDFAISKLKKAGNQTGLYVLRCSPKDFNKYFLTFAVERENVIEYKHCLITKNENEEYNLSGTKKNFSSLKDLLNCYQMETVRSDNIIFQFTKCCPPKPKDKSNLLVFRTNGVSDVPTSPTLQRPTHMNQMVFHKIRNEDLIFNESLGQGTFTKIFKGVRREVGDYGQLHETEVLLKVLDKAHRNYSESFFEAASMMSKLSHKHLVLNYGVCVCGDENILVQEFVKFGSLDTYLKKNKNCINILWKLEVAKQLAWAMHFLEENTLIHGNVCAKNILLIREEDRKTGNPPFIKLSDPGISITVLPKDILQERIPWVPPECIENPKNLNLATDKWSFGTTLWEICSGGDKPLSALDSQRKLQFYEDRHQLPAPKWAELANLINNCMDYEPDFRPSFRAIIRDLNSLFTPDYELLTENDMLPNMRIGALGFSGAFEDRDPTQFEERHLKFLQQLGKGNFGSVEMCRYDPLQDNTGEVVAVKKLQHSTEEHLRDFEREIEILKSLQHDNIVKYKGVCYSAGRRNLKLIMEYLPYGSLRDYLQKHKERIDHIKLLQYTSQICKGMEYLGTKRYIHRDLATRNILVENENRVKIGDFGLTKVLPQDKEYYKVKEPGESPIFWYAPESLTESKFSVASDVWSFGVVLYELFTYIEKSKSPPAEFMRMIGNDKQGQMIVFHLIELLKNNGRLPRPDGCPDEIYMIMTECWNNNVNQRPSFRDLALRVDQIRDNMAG
Procedure, shortened: as §1

[2] = test system: MOLM-13 cells (FLT3-ITD-/+); experiment: Inhibition of cell proliferation by MTT experiment, MOLM-13; type: cell-based, human; details: MTT, 72 h, read-out: IC50 value on cell proliferation inhibition, MOLM-13 FLT3-ITD-/+
Procedure, shortened: as §2

Structure (SMILES) | inhibition at 0.5 µM (FLT3) [%] | IC50 (SET-2 cells (JAK2 V617F); Homo sapiens, SET-2) [nM] | IC50 ([1]; Homo sapiens, MV4-11) [nM] | Kinase activity @ 500 nM (%) JAK2 (JAK2) [%] | IC50 ([2]; Homo sapiens, MOLM-13) [nM] | Kinase activity @ 500 nM (%) FLT3 (FLT3) [%] | IC50 (SET-2 cells (JAK2 V617F)) [nM] | IC50 [1] [nM] | IC50 [2] [nM]
CCCN1CCN(CCN(C)C2CCN(c3ccc(Nc4ncc(C)c(-c5cnn(C(C)C)c5)n4)cc3F)CC2)CC1 [CLJ-57, N-(3-fluoro-4-(4-(methyl (4-propyl-1-piperazine ethyl)amino)piperidine-1-yl)phenyl)-4-(1-isopropyl-1H-pyrazole-4-yl)-5-methylpyrimidine-2-amine] | 96 | 100 to 1000 | 1 to 10 | 97 | 10 to 100 |  |  |  | 
Cc1cnc(Nc2ccc(N3CCC(N(C)CCN4CCN(C(C)C)CC4)CC3)c(F)c2)nc1-c1cnn(C(C)C)c1 [CLJ-58, N-(3-fluoro-4-(4-(methyl (4-isopropyl-1-piperazine ethyl)amino)piperidine-1-yl)phenyl)-4-(1-isopropyl-1H-pyrazole-4-yl)-5-methylpyrimidine-2-amine] | 96 | 100 to 1000 | 1 to 10 | 95 | 10 to 100 |  |  |  | 
CCN(CCN1CCOCC1)C1CCN(c2ccc(Nc3ncc(C)c(-c4cnn(C(C)C)c4)n3)cc2F)CC1 [CLJ-59, N-(3-fluoro-4-(4-(ethyl(morpholinoethyl)amino)piperidine-1-yl)phenyl)-4-(1-isopropyl-1H-pyrazole-4-yl)-5-methylpyrimidine-2-amine] | 97 | 100 to 1000 | 1 to 10 | 98 | 100 to 1000 |  |  |  | 
CCCN(CCN1CCOCC1)C1CCN(c2ccc(Nc3ncc(C)c(-c4cnn(C(C)C)c4)n3)cc2F)CC1 [CLJ-60, N-(3-fluoro-4-(4-(propyl(morpholinoethyl)amino)piperidine-1-yl)phenyl)-4-(1-isopropyl-1H-pyrazole-4-yl)-5-methylpyrimidine-2-amine] | 97 | 100 to 1000 | 1 to 10 | 100 | 10 to 100 |  |  |  | 
Cc1cnc(Nc2ccc(N3CCC(CN(C)CCN4CCOCC4)CC3)c(F)c2)nc1-c1cnn(C(C)C)c1 [CLJ-61, N-(3-fluoro-4-(4-(methyl(morpholinoethyl)aminomethyl)piperidine-1-yl)phenyl)-4-(1-isopropyl-1H-pyrazole-4-yl)-5-methylpyrimidine-2-amine] | 98 | 100 to 1000 | 1 to 10 | 99 | 10 to 100 |  |  |  | 
Cc1cnc(Nc2ccc(N3CCC[C@@H](N(C)C(=O)CCC#N)C3)c(F)c2)nc1-c1cnn(C(C)C)c1 [CLJ-65, (R)-3-cyano-N-(1-(2-fluoro-4-((4-(1-isopropyl-1H-pyrazole-4-yl)-5-methylpyrimidine-2-yl)amino)phenyl)piperidine-3-yl)-N-methylpropionamide] | 89 | 100 to 1000 | 10 to 100 | 90 | 10 to 100 |  |  |  | 
Cc1cnc(Nc2ccc(N3CCC4(CC3)CNC4)c(F)c2)nc1-c1cnn(C(C)C)c1 [CLJ-66, N-(3-fluoro-4-(2,7-diazaspiro[3.5]nonane-7-yl)phenyl)-4-(1-isopropyl-1H-pyrazole-4-yl)-5-methylpyrimidine-2-amine] | 94 | 100 to 1000 | 10 to 100 | 93 | 100 to 1000 |  |  |  | 
Cc1cnc(Nc2ccc(N3CCC4(CC3)CN(CCO)C4)c(F)c2)nc1-c1cnn(C(C)C)c1 [CLJ-67, N-(3-fluoro-4-(2,7-diazaspiro[3.5]nonane-2-hydroxyethyl-7-yl)phenyl)-4-(1-isopropyl-1H-pyrazole-4-yl)-5-methylpyrimidine-2-amine] |  |  |  | 96 |  | 98 | 100 to 1000 | 10 to 100 | 100 to 1000
CCCC(O)CN1CC2(CCN(c3ccc(Nc4ncc(C)c(-c5cnn(C(C)C)c5)n4)cc3F)CC2)C1 (centres unmarked) [CLJ-70, N-(3-fluoro-4-(2,7-diazaspiro [3.5]nonane-2-hydroxypentyl-7-yl)phenyl)-4-(1-isopropyl-1H-pyrazol-4-yl)-5-methylpyrimidine-2-amine] |  |  |  | 90 |  | 91 | 100 to 1000 | 10 to 100 | 10 to 100
CCN1CC2(CCN(c3ccc(Nc4ncc(C)c(-c5cnn(C(C)C)c5)n4)cc3F)CC2)C1 [CLJ-71, N-(3-fluoro-4-(2,7-diazaspiro [3.5]nonane-2-ethyl-7-yl)phenyl)-4-(1-isopropyl-1H-pyrazole-4-yl)-5-methylpyrimidine-2-amine] | 93 | 100 to 1000 | 1 to 10 | 91 | 10 to 100 |  |  |  | 
CCCN1CC2(CCN(c3ccc(Nc4ncc(C)c(-c5cnn(C(C)C)c5)n4)cc3F)CC2)C1 [CLJ-72, N-(3-fluoro-4-(2,7-diazaspiro [3.5]nonane-2-propyl-7-yl)phenyl)-4-(1-isopropyl-1H-pyrazole-4-yl)-5-methylpyrimidine-2-amine] | 92 | 100 to 1000 | 10 to 100 | 92 | 10 to 100 |  |  |  | 
CCCCN1CC2(CCN(c3ccc(Nc4ncc(C)c(-c5cnn(C(C)C)c5)n4)cc3F)CC2)C1 [CLJ-73, N-(3-fluoro-4-(2,7-diazaspiro [3.5]nonane-2-butyl-7-yl)phenyl)-4-(1-isopropyl-1H-pyrazole-4-yl)-5-methylpyrimidine-2-amine] | 97 | 100 to 1000 | 100 to 1000 | 91 | 100 to 1000 |  |  |  | 
CCCCCCN1CC2(CCN(c3ccc(Nc4ncc(C)c(-c5cnn(C(C)C)c5)n4)cc3F)CC2)C1 [CLJ-74, N-(3-fluoro-4-(2,7-diazaspiro [3.5]nonane-2-hexyl-7-yl)phenyl)-4-(1-isopropyl-1H-pyrazole-4-yl)-5-methylpyrimidine-2-amine] | 97 | 10 to 100 | 10 to 100 | 98 | 10 to 100 |  |  |  | 
Cc1cnc(Nc2ccc(N3CCC4(CC3)CN(C(C)C)C4)c(F)c2)nc1-c1cnn(C(C)C)c1 [CLJ-75, N-(3-fluoro-4-(2,7-diazaspiro [3.5]nonane-2-isopropyl-7-yl)phenyl)-4-(1-isopropyl-1H-pyrazole-4-yl)-5-methylpyrimidine-2-amine] | 99 | 10 to 100 | 1 to 10 | 96 | 1 to 10 |  |  |  | 
Cc1cnc(Nc2ccc(N3CCC4(CC3)CN(C3CCCC3)C4)c(F)c2)nc1-c1cnn(C(C)C)c1 [CLJ-76, N-(3-fluoro-4-(2,7-diazaspiro [3.5]nonane-2-cyclopentyl-7-yl)phenyl)-4-(1-isopropyl-1H-pyrazole-4-yl)-5-methylpyrimidine-2-amine] | 67 | 100 to 1000 | 100 to 1000 | 59 | 100 to 1000 |  |  |  | 
C=CC(=O)CCN1CC2(CCN(c3ccc(Nc4ncc(C)c(-c5cnn(C(C)C)c5)n4)cc3F)CC2)C1 [CLJ-77, 1-(7-(2-fluoro-4-((4-(1-isopropyl-1H-pyrazole-4-yl)-5-methylpyrimidine-2-yl)-amino)-phenyl)-2,7-diazaspiro [3.5]nonane-2-yl)-4-pentenamide] | 55 | 100 to 1000 | 100 to 1000 | 54 | 100 to 1000 |  |  |  | 

Reference: US12428394B2, “2,4-disubstituted pyrimidine derivative, preparation method therefor and use thereof” (CHENGDU ZENITAR BIOMEDICAL TECHNOLOGY CO., LTD., priority 2019, dated 2025)
